Experimental data: the supplement of paper PMC13380429

Legend:
Details in all cases: 72 h
HepG2 [1] = assay: cell viability relative to DMSO; higher = less toxic
Calu-3 [2] = assay: as above
Vero E6 [3] = assay: as above
U2OS [4] = assay: as above
Caco-2 [5] = assay: as above
HepG2 [6] = assay: relative viability EC50 (midpoint between 100% and the lowest measured viability); higher = less toxic
Calu-3 [7] = assay: as above
Vero E6 [8] = assay: as above
U2OS [9] = assay: as above
Caco-2 [10] = assay: as above
HepG2 [11] = assay: drug sensitivity score (DSS) for viability; higher = more toxic; extreme values may be limits of the assay
Calu-3 [12] = assay: as above
Vero E6 [13] = assay: as above
U2OS [14] = assay: as above
Caco-2 [15] = assay: as above

Structure (SMILES)	cell viability (HepG2 [1]; 1 nM) [%]	cell viability (HepG2 [1]; 10 nM) [%]	cell viability (HepG2 [1]; 100 nM) [%]	cell viability (HepG2 [1]; 1000 nM) [%]	cell viability (HepG2 [1]; 10000 nM) [%]	cell viability (Calu-3 [2]; 1 nM) [%]	cell viability (Calu-3 [2]; 10 nM) [%]	cell viability (Calu-3 [2]; 100 nM) [%]	cell viability (Calu-3 [2]; 1000 nM) [%]	cell viability (Calu-3 [2]; 10000 nM) [%]	cell viability (Vero E6 [3]; 1 nM) [%]	cell viability (Vero E6 [3]; 10 nM) [%]	cell viability (Vero E6 [3]; 100 nM) [%]	cell viability (Vero E6 [3]; 1000 nM) [%]	cell viability (Vero E6 [3]; 10000 nM) [%]	cell viability (U2OS [4]; 1 nM) [%]	cell viability (U2OS [4]; 10 nM) [%]	cell viability (U2OS [4]; 100 nM) [%]	cell viability (U2OS [4]; 1000 nM) [%]	cell viability (U2OS [4]; 10000 nM) [%]	cell viability (Caco-2 [5]; 1 nM) [%]	cell viability (Caco-2 [5]; 10 nM) [%]	cell viability (Caco-2 [5]; 100 nM) [%]	cell viability (Caco-2 [5]; 1000 nM) [%]	cell viability (Caco-2 [5]; 10000 nM) [%]	relative viability EC50 (HepG2 [6]) [µM]	relative viability EC50 (Calu-3 [7]) [µM]	relative viability EC50 (Vero E6 [8]) [µM]	relative viability EC50 (U2OS [9]) [µM]	relative viability EC50 (Caco-2 [10]) [µM]	drug sensitivity score (HepG2 [11])	drug sensitivity score (Calu-3 [12])	drug sensitivity score (Vero E6 [13])	drug sensitivity score (U2OS [14])	drug sensitivity score (Caco-2 [15])
O=C(c1cncc(Br)c1)N1CCC(N2CCCC2)CC1 [UNC669]	98.3	102	103	93.4	101	99.3	110	93.7	98.4	98.3	101	102	95.7	100	97.8	97.1	106	95.1	102	93.6	99.1	105	90.5	111	92.7	> 10	> 10	> 10	> 10	> 10	0	0	0	0	0
C[C@H](NC(=O)/C(C#N)=C/c1cccc(Br)n1)c1ccccc1 [WP1066]	100	101	105	94.2	10.3	102	93	90.6	103	75.4	97.3	96.8	98.3	97.6	15.9	102	99.2	105	98.5	0.7	95.8	96.7	96.4	104	20.1	2.66	> 10	2.96	3.06	3.45	5.8	0.8	5	5.7	4.1
CN(Cc1cccc(-c2ccccc2)c1)C(=O)Oc1ccc(-c2ccc(C(N)=O)cc2)cc1 [WWL-123]	95.9	110	108	102	100	101	99.7	101	105	99.4	101	100	101	99.5	98.3	101	98.7	102	98	101	99.1	95.4	98.1	91.8	84.8	> 10	> 10	> 10	> 10	> 10	0	0	0	0	0.4
C[n+]1c2cc(N)ccc2cc2ccc(N)cc21.Nc1ccc2cc3ccc(N)cc3nc2c1 [acriflavine]	91.6	95.3	88.9	29.2	0.7	103	93.1	102	73	15.4	97	100	98.8	95.1	2.8	98.1	100	96.6	95.8	0	91.9	101	93.6	65.2	19.2	0.49	1.35	2.77	2.85	1.17	14.9	8.6	6.1	6.1	8.5
NC(=O)c1ccc([N+](=O)[O-])cc1Cl [aklomide]	95.5	95.9	100	91	102	112	106	112	98.9	103	98.4	98.4	95.8	96.6	104	107	103	99.4	101	103	95.9	95.3	100	92.2	98.1	> 10	> 10	> 10	> 10	> 10	0	0	0	0	0
Oc1ncnc2[nH]ncc12 [allopurinol]	113	99.6	99.5	103	91.7	100	98	90.4	98	94.1	107	104	92	101	93.9	100	103	102	99.2	101	91.5	97	104	89.6	100	> 10	> 10	> 10	> 10	> 10	0	0	0	0	0
NCC[C@H](O)C(=O)N[C@@H]1C[C@H](N)[C@@H](O[C@H]2O[C@H](CN)[C@@H](O)[C@H](O)[C@H]2O)[C@H](O)[C@H]1O[C@H]1O[C@H](CO)[C@@H](O)[C@H](N)[C@H]1O [amikacin]	101	104	96.6	92.6	113	100	99.7	94.9	105	91.5	94.8	98.5	96.9	94.5	103	97.5	98.3	98.9	103	97.9	95.7	103	99.5	104	104	> 10	> 10	> 10	> 10	> 10	0	0	0	0	0
Cc1ccc(/N=C/N(C)/C=N/c2ccc(C)cc2C)c(C)c1 [amitraz]	96	81.2	103	87.4	92.2	95.1	104	98.1	105	96.1	94.8	103	95.8	95.6	104	101	99.2	94.6	95.5	87.8	94.1	99.5	91.8	104	88.1	> 10	> 10	> 10	> 10	> 10	0	0	0	0	0
CC(C)(C#N)c1cc(Cn2cncn2)cc(C(C)(C)C#N)c1 [anastrozole]	89.5	94.3	96.1	97.5	96.4	97.1	98.7	93.8	116	103	94	99.2	97.7	99.3	107	92.7	98.3	96.3	104	113	89.4	101	92.9	96.9	95.8	> 10	> 10	> 10	> 10	> 10	0	0	0	0	0
COc1ccc(C2C(=O)c3ccccc3C2=O)cc1 [anisindione]	107	111	105	108	94.7	112	106	108	95.7	108	95.1	92.1	94.7	89.5	105	101	97.8	102	106	105	101	93.8	100	98.3	95.3	> 10	> 10	> 10	> 10	> 10	0	0	0	0	0
O=C1C(=O)N(Cc2ccc(Cl)c(Cl)c2)c2ccccc21 [apoptosis-activator-II]	103	98	108	107	84.5	95.7	93	103	92.6	89	106	102	103	102	87.8	99.2	98.9	94	94.4	30.2	91.6	104	93.3	96.7	84.5	> 10	> 10	> 10	2.5	> 10	0.1	0	0	4.7	0.2
CCc1cccc(N(C)C(=N)Nc2cccc3ccccc23)c1 [aptiganel]	97.6	97.2	96.1	96	85.8	106	105	93.2	92.5	75.1	98.2	100	103	96.7	88.8	101	107	98.5	97.5	88.2	98.1	95.6	96.4	94.5	82	> 10	> 10	> 10	> 10	> 10	0.1	1.4	0.1	0.1	0.7
CCCCN(CCCC)C(=O)CN1C[C@H](c2ccc3c(c2)OCO3)[C@@H](C(=O)O)[C@@H]1c1ccc(OC)cc1 [atrasentan]	106	104	92.6	104	97.6	98.7	94.6	114	104	109	104	105	98.8	98.8	104	94.4	94.4	102	94.5	106	101	99.8	98.3	88.3	99.3	> 10	> 10	> 10	> 10	> 10	0	0	0	0	0
CC[C@H]1OC(=O)[C@H](C)[C@@H](O[C@H]2C[C@@](C)(OC)[C@@H](O)[C@H](C)O2)[C@H](C)[C@@H](O[C@@H]2O[C@H](C)C[C@H](N(C)C)[C@H]2O)[C@](C)(O)C[C@@H](C)CN(C)[C@H](C)[C@@H](O)[C@]1(C)O [azithromycin]	111	105	83.5	105	92	96.2	94.5	104	89.8	106	107	103	100	99.7	101	95.5	98.7	104	96.6	98.2	89.6	104	96.7	101	92.2	> 10	> 10	> 10	> 10	> 10	0	0	0	0	0
